# Laboratory results taken from patent US11447535B2, “GLP-1 analogues” (Sun Pharmaceutical Industries Limited, priority 2018, dated 2022).
# Marks after values point to notes of the source that are not given here.
# Columns and labels:
# [1] = system: SD rats; assay: Oral glucose tolerance test (OGTT) in rats; single injection; 1 mg/kg; type: in vivo; parameters: Change in AUC (mg/dL*min): unit not given here; conditions: for Blood Glucose AUC (mg/dL*min) Mean / Change in AUC (mg/dL*min): 1 mg/Kg; for Blood Glucose AUC (mg/dL*min) Mean: Exp. 1; for Change in AUC (mg/dL*min): Exp. 1, vs control group
# Experimental: (§1) Animals were divided into three groups—a normal control group, a test group and a third semaglutide group, with 4 animals in each group. The animals were fasted for 12 hours before initiation of OGTT. To the test group animals, the Compound 1 was injected subcutaneously at 1 mg/kg dose. To the semaglutide group, a dose of 1 mg/kg was injected subcutaneously. After 22 hrs, 166 hrs and 334 hrs of subcutaneous injection of test drug or semaglutide, blood glucose was measured with blood glucose meter (time 0 measurements). All the animals were then given 2 g/kg of glucose solution orally. Blood glucose was measured at 20, 40, 60, 90 and 120 minutes following glucose challenge. Body weight and food intake was recorded. Blood glucose data was analyzed using Two way ANOVA followed by Bonferroni posttests using PRISM (Graph Pad version 5.03). Data of Blood glucose AUC0-120 min, was analyzed using t test.
# as §1, with “animals,” for “animals, the”, “1, Compound 13 and Compound 16 were” for “1 was”, “compound” for “drug”
# [2] = Food intake and body weight recorded in the rat OGTT study; type: in vivo, rats; conditions: for Body Weight Change (%) Mean / Food Consumption (g) Mean: Exp. 1
# Experimental: as §1
# as §1, with “animals,” for “animals, the”, “1, Compound 13 and Compound 16 were” for “1 was”, “compound” for “drug”
# [3] = system: db/db type 2 diabetic mice; assay: Reduction of HbA1c in db/db type 2 diabetic mice after chronic treatment (27 day study); type: in vivo
# Experimental: This study was done in diabetic mouse model. The animals were divided into three treatment groups—a diabetic control group, a test group and a semaglutide treatment group. Compound 1 of the present disclosure was injected subcutaneously at 0.3 mg/kg dose once a day for 3 days (qd*3) followed by 0.1 mg/kg dose every alternate day for 7 doses (q2d*7) followed by 0.1 mg/kg dose once every four days for two dose cycles (q4d*2). The same dosage regimen was administered in semaglutide treatment group. Measurements of blood glucose levels and body weight were done daily. % HbA1c was measured on Day 0, day 7, day 14 and day 27 by column chromatography. Cumulative food intake was calculated on day 27. % HbA1C data was analyzed by two way ANOVA followed by Bonferroni's posttests using PRISM (Graph Pad version 5.03).
# [4] = system: db/db mice (diabetic mouse model); assay: Separate db/db diabetic mouse study, q2d*15 up to day 28, recovery period day 29 to day 45; type: in vivo
# Experimental: The study was performed in similar manner as above on diabetic mouse model. The animals were divided into three treatment groups—a diabetic control group, a test group and a semaglutide treatment group. The representative compounds of the present disclosure, Compound 1, Compound 13 and Compound 16, were injected subcutaneously at 3.04 or 6.078 nM dose (every alternate day up to day 28 (q2d*15). The same dosage regimen was administered in semaglutide treatment group. Measurements of blood glucose levels and body weight were done daily. % HbA1c, Insulin was measured on Day 0, day 14 and day 29. Cumulative food intake and body weight change was calculated on day 14 and 29. % HbA1c, Insulin data was analyzed by two way ANOVA followed by Bonferroni's posttests using PRISM (Graph Pad version 5.03). Whereas Blood Glucose AUC, Body weight change and Cumulative food intake data was analyzed by one way ANOVA followed by Bonferroni's posttests using PRISM (Graph Pad version 5.03). From day 29 to day 45, animals were kept on recovery period during which no drug treatment was given. Blood Glucose and Body weight was measured during this period. On day 45, Body weight Changes, % HbA1c, Insulin was measured.
# [5] = rats, 1 mg/kg s.c. single injection, Day 2
# [6] = rats, 1 mg/kg s.c. single injection, Day 4
# [7] = recovery period, earlier dose 6.078 nM
# [8] = recovery study, day 45, earlier dose 6.078 nM (6.0788 nM given for Compound 13)
substance,measurement,setting,value
"N-ε^26-[2-(2-[2-(2-[2-(2-[4-(17-Carboxyheptadecanoylamino)-4(S)carboxybutyrylamino]ethoxy) ethoxy]acetylamino)ethoxy]ethoxy)acetyl][(Aib^8, Arg^34, Leu^38 GLP-1(7-38) peptide (HXXXGTFTSDVSSYLXGQAAXEFXAWLVRGRGXX; C18 diacid-gGlu-OEG-OEG on Lys26; Aib8; (2)..(2) Xaa = Aib; (3)..(3) Xaa = absent.; (4)..(4) Xaa = Glu.; (16)..(16) Xaa = Glu.; (21)..(21) Lys is substituted; (24)..(24) Xaa is Ile.; (33)..(33) Xaa is Leu.; (34)..(34) Xaa is absent.) [Compound 1]",Blood Glucose AUC (mg/dL*min) Mean,"[1]; OGTT, 22 hr",3173.0 mg·min/dL
same,Change in AUC (mg/dL*min),"[1]; OGTT, 22 hr",−78.7
same,Blood Glucose AUC (mg/dL*min) Mean,"[1]; OGTT, 168 hr",5941.0 mg·min/dL
same,Change in AUC (mg/dL*min),"[1]; OGTT, 168 hr",−65.4
same,Blood Glucose AUC (mg/dL*min) Mean,"[1]; OGTT, 336 hr",11920.0 mg·min/dL
same,Change in AUC (mg/dL*min),"[1]; OGTT, 336 hr",−28.3
same,blood glucose level vs normal control,"[1]; OGTT, 22 hours after single dosing, 1 mg/kg s.c. (FIG. 6A)",statistically significant reduction in blood glucose level
same,glucose lowering effect vs semaglutide,"[1]; OGTT, after 22 hrs, 1 mg/kg s.c. (FIG. 6A)",superior to the glucose lowering effect observed with semaglutide
same,glucose lowering effect vs semaglutide,"[1]; OGTT, after 46 hours of subcutaneous administration (FIG. 6B)",superiority of glucose lowering effect
same,reduction in blood glucose AUC,"[1]; after 168 hrs of injection, 1 mg/kg",about 60%
same,Body Weight Change (%) Mean,"[2]; 1 mg/Kg, 48 h",−9.8%
same,Food Consumption (g) Mean,"[2]; 1 mg/Kg, 48 h",8.3 g
same,Body Weight Change (%) Mean,"[2]; 1 mg/Kg, 154 h",5.2%
same,Food Consumption (g) Mean,"[2]; 1 mg/Kg, 154 h",69.6 g
same,Body Weight Change (%) Mean,"[2]; 1 mg/Kg, 324 h",9.3%
same,Food Consumption (g) Mean,"[2]; 1 mg/Kg, 324 h",99.4 g
same,food consumed vs animals administered with semaglutide,"[2]; 1 mg/Kg, text on Table 8",consumed significantly less food
same,Body Weight (Day 2) % Change vs Baseline,[2]; [5],−9.33%
same,Body Weight (g) (Day 2) Mean,[2]; [5],365.6 g
same,Body Weight (Day 4) % Change vs Baseline,[2]; [6],−7.5%
same,Body Weight (g) (Day 4) Mean,[2]; [6],436.2* g
same,Food Consumption (g) (day 0 to day 2) Mean,"[2]; rats, 1 mg/kg s.c. single injection, day 0 to day 2",2.63*** g
same,Food Consumption (g) (day 0 to day 4) Mean,"[2]; rats, 1 mg/kg s.c. single injection, day 0 to day 4","43.25***^,## g"
same,cumulative food intake vs diabetic control group,"[3]; db/db mice, 0 to 27th day (FIG. 8)",significant reduction in food intake
same,% HbA1c Mean,"[3]; db/db mice, Day 0 (before treatment)",4.87%
same,% HbA1c % Change vs DC,"[3]; db/db mice, Day 27, vs Diabetic Control",−3.57%
same,% HbA1c Mean,"[3]; db/db mice, Day 27, s.c. 0.3 mg/kg qd*3, 0.1 mg/kg q2d*7, 0.1 mg/kg q4d*2",3.73***^## %
same,blood glucose levels vs diabetic control group,"[3]; db/db mice, chronic treatment (FIG. 7)",statistically significant reduction in blood glucose levels
same,% change in body weight,"[3]; db/db mice, day 0 to day 27 (FIG. 9)",−16%
same,blood glucose effect vs semaglutide treatment group,"[3]; db/db mice, latter phase of the study (FIG. 7)",superior to semaglutide treatment group in latter phase of the study
same,HbA1c level after chronic treatment,"[3]; db/db type 2 diabetic mice, 27 day study",statistically significant reduction in HbA1c level
same,Blood Glucose AUC (Day 0-29) % Change Vs Control,"[4]; 6.078 nM, q2d*15",−45.75%
same,Blood Glucose AUC (Day 0-29) (mg/dL*days) Mean,"[4]; 6.078 nM, q2d*15",9194.6*** mg/dL*days
same,"Body Weight Change Day 29, % Change vs Day 0 Mean","[4]; 6.078 nM, q2d*15",−0.3%
same,Cumulative Food Intake (g) Day 0-29 Mean,"[4]; 6.078 nM, q2d*15",79.8 g
same,% HbA1C Mean,"[4]; Day 0, 6.078 nM, q2d*15",7.8%
same,Insulin (ng/mL) Mean,"[4]; Day 0, 6.078 nM, q2d*15",18.0 ng/mL
same,% HbA1C Mean,"[4]; Day 14, 6.078 nM, q2d*15",6.4 ** %
same,Insulin (ng/mL) Mean,"[4]; Day 14, 6.078 nM, q2d*15",58.1** ng/mL
same,% HbA1C Mean,"[4]; Day 29, 6.078 nM, q2d*15",6.2 *** %
same,Insulin (ng/mL) Mean,"[4]; Day 29, 6.078 nM, q2d*15",54.7** ng/mL
same,"HbA1c, blood glucose, food consumption and body weight vs control",[4]; about 3 nM and 6 nM dose,significant reduction
same,Blood Glucose AUC (Day 30-37) % Change vs Control,[4]; [7],−22.39%
same,Blood Glucose AUC (Day 30-37) (mg/dL*days) Mean,[4]; [7],2787.3* mg/dL*days
same,Blood Glucose AUC (Day 38-45) % Change vs Control,[4]; [7],−7.39%
same,Blood Glucose AUC (Day 38-45) (mg/dL*days) Mean,[4]; [7],3335.7 mg·days/dL
same,% HbA1C Mean,[4]; [8],7.6%
same,Delta HbA1C vs. DC,[4]; [8],−0.9
same,Insulin (ng/mL) Mean,[4]; [8],30.9 ng/mL
same,Body Weight % Change vs Day 45 Mean,"[4]; recovery study, earlier dose 6.078 nM (6.0788 nM given for Compound 13)",5.9%
